# Laboratory results: patent US9376424B2, “Methods for treating post traumatic stress disorder” (AZEVAN PHARMACEUTICALS, INC., priority 2010, dated 2016)
# Tests used:
# V1b receptor = biological target: T1, V1b receptor (Homo sapiens, UniProt P47901); assay: Human or rat vasopressin V1b cell-based receptor binding assay; details: selectivity table; read-out: inhibition data (Ki, nM), Receptor V1b
# T1 construct: expressed in transfected cells; host or cells: CHO-K1 (ATCC), vector PCI-neo
# T1 sequence (P47901 1-424): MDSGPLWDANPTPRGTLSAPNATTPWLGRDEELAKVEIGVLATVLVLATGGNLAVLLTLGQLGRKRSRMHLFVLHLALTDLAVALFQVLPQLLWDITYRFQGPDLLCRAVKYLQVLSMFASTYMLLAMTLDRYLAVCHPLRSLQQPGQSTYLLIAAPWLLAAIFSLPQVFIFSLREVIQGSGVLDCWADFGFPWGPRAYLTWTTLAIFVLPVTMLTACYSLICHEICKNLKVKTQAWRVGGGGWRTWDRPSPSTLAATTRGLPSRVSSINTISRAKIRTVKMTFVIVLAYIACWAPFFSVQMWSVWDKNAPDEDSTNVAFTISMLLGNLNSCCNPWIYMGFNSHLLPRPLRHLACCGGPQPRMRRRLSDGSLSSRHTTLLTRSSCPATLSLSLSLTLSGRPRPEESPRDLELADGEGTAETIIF
# Description: Human vasopression V1b receptor-expressing cells. Human vasopressin receptor 1b (hV1b) cDNA (see, Lolait et al., “Extrapituitary expression of the rat V1b vasopressin receptor gene” Proc. Natl. Acad. Sci. USA. 92:6783-7 (1995); de Keyzer et al., “Cloning and characterization of the human V3(V1b) pituitary vasopressin receptor” FEBS Lett. 356:215-20 (1994); Sugimoto et al., “Molecular cloning and functional expression of a cDNA encoding the human V1b vasopressin receptor” J. Biol. Chem. 269:27088-92 (1994)) was inserted into a mammalian cell expression vector PCI-neo (Promega) at EcoR1 site. The recombinant plasmid carrying hV1b cDNA was identified from transformed E. Coli clones and used for the transfection of Chinese hamster ovary cell (CHO-K1, ATCC). Two micrograms of hV1b receptor DNA was introduced into 10^5 CHO cells cultured in 6-well plate, using Fugene-6 mediated transfection technique (Boehringer Mannheim). Twenty-four hrs post transfection, Cells were then cultured under selection of G-418 (0.25 mg/ml) supplemented to the culture medium. Three days later, limited dilution was carried out to obtain single cell clones in 96-well plates. […]
# Human or rat vasopression V1b cell-based receptor binding assay. […] Samples were counted in a liquid scintillation counter (Beckman LS3801). IC50 and Ki values were calculated using Prism Curve fitting software. […]
# V2 = V2 (Homo sapiens, UniProt P30518); assay: V2 receptor inhibition data (Ki); type: binding; details: selectivity table
# resident male rats = assay: Resident-Intruder Model of Stress and Aggression in Rats (neuroimaging); type: in vivo, rat; details: oral administration, intruder stimulus
# Description: Resident-Intruder Model of Stress and Aggression in Rats. Neuroimaging is used to assess the blockade of stress/arousal with test compound compared to control. The effect of AVN251-HCl on functional circuitry was examined using the imaging method for awake rats. Additional details of the assay are described in Ferris et al. (2008).
# Male rats in the company of a female cage mate will piloerect in the presence of a male intruder. This piloerection is a sign of stress and aggressive intent and is associated with activation of stress/arousal circuits in the brain. […] Resident male rats from six male:female pairs were imaged while fully awake. During a single imaging session, these males were treated with vehicle or AVN251-HCl (5 mg/kg).
# The total volume of brain activation for resident males confronted with their mate alone, mate plus intruder, and mate plus intruder in the presence of AVN251-HCl can be viewed as 3D models. While there appears to be a general decrease in BOLD signal in major regions with AVN251-HCl treatment, sexual motivation, as assessed by the presentation of a novel receptive female, was unaffected by V1a receptor blockade.
# Stress circuit activation in response to an intruder male is assessed by obtaining brain scans viewed from a caudal/dorsal perspective as translucent shells. The localization of activated voxels is mapped as 3D volumes of activation, which are composed of 10 subjects each. Once fully registered and segmented, the statistical responses for each subject are averaged on a voxel-by-voxel basis. Those averaged voxels exceeding a 2.0% threshold are shown in their appropriate spatial location. Functional images are acquired on awake rats at 4.7 T.
# The 3D volumes of activation are composed from results obtained with 10 subjects in each condition. […] Particular olfactory systems measured included the anterior olfactory nucleus, olfactory tubercle, piriform cortex, n. laterial olfactory tract, and entrorhinal cortex. Particular dopaminergic systems measured included the prelimbic cortex, accumbens, ventral pallidum, medial dorsal thalamus, and ventral tegmentum.
# Awake rats were imaged when presented with their mate+an intruder, a highly stressful stimulus.
# Chain of V2 (P30518 whole entry): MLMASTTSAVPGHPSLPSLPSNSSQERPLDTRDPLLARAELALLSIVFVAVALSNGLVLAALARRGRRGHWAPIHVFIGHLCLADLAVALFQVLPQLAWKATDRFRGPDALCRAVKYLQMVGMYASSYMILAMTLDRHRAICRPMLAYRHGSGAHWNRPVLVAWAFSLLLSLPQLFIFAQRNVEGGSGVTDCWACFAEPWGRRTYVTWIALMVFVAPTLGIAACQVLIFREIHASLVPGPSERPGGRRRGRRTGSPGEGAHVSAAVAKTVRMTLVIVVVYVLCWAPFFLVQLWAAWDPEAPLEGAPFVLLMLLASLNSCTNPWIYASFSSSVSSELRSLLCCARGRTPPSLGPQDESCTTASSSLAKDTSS
compound,measurement,setting,value
"C[C@@H](NC(=O)[C@@H](CC(=O)N1CCC(N2CCCCC2)CC1)N1C(=O)[C@@H](N2C(=O)OC[C@@H]2c2ccccc2)[C@H]1C=Cc1ccccc1)c1ccccc1 [Example 224, 2(R)-[[4-(Piperidinyl)piperidinyl]carbonylmethyl]-2-[3(S)-(4(S)-phenyloxazolidin-2-on-3-yl)-4(R)-(2-styryl)azetidin-2-on-1-yl]acetic acid N—[(R)-α-methylbenzyl]amide]",Ki,V1b receptor,> 1000 nM
same,Ki,V2,> 1000 nM
same,stress and aggressive motivation compared to controls,resident male rats,blocked stress and aggressive motivation
